One assay has as its system Human SVF. Put plainly: Brown adipose marker protein level in human stromal vascular fractions. It counts as cell-based. To be noted: differentiated in presence of ULMA, 21 d. The method, then: C. Cells from identical set of experiments as described in FIGS. 5A and 5B or human SVFs prepared by collagenase digestions were analyzed by western blot analysis for determination of UCP-1, UCP-2 and PGC-1α protein level. Beta-actin was used as a loading control. Data is representative of three independent experiments.
Mouse stromal vascular fractions (SVF) from epididymal fat pad were prepared using standard collagenase digestion method. Human SVF was prepared from human lipoaspirates (subcutaneous) collected from an obese individual undergoing liposuction following approval of Institutional Ethical Committee. To isolate SVFs, epidymal fat pads tissue or lipoaspirates were washed 6× in PBS and then were dispensed in tissue culture flasks. 0.2% sterile collagenase (Sigma) solution containing 1× antibiotic-antimycotic (Invitrogen) was then added to the adipose and the flasks were shaken vigorously for 10 seconds. The flasks were then incubated at 37° C. on a shaker for 2 hours with manual shaking of the flasks for 5-10 seconds every 15 min. After completion of digestion, FBS was added to the final concentration of 10% to the flasks, mixed and the collagenase digested tissue were then dispensed in 50 ml conical tubes and were centrifuged at 400 g for 10 min at room temp. […]

The next assay addresses T1, AdipoR1 (Mus musculus, UniProt Q91VH1).
T1 construct: C2C12 myotubes (that express both AdipoR1 and AdipoR2) were incubated with 20 μl control or ULMA-beads; endogenous in cells; host or cells: C2C12 myotubes (mouse), plasma membrane extract
T1 sequence (Q91VH1 1-375): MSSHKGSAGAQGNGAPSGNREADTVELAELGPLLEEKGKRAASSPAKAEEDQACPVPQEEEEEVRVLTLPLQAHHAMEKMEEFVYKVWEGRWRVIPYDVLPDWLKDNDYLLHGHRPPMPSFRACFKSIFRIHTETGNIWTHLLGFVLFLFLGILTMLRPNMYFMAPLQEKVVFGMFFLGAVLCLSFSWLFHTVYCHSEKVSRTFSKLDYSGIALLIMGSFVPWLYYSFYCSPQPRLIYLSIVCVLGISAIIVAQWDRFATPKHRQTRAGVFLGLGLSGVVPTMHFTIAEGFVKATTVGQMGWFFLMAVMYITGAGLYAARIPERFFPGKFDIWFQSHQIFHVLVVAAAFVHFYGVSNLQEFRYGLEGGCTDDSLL
The assay can be described thus: ULMA-AdipoR interaction assay (ULMA beads, C2C12 myotube membrane extracts, western blot). Format: binding. To be noted: 50 μg membrane extract, 12 hours. The method, then:
B. ULMA interacts with AdipoRs. 20 μl of ULMA beads or control beads were incubated with 50 μg of plasma membrane extracts (prepared using a membrane protein isolation kit; Biomol; according to manufacturer's instructions) prepared from C2C12 myotubes (that expresses both AdipoR1 and AdipoR2) for 12 h on a rotary wheel set at 10 rpm. The supernatant was removed and an aliquot was stored as flowthrough. The pellet was washed 6 times and then the beads were boiled in Lamelli buffer and resolved by 10% denaturing polyacrylamide gel electrophoresis followed by transfer on nitrocellulose membrane and western blotting with anti AdipoR1 or anti-AdipoR2 antibodies. Data represents one of two independent experiments showing identical pattern.
To investigate whether this enhancement of PPAR ligand activity by ULMA indeed happens through AdipoRs, physical interaction between ULMA and AdipoRs were assessed. The ULMA was immobilized on agarose beads.
Preparation of ULMA Specific Affinity Matrix:
ULMA specific Affinity Matrix and Control Matrix were prepared using following protocol.
1. 45 mg and 22.5 mg of epoxy-activated agarose beads (sigma) were weighed and put separately in two 1.5 ml eppendorf tubes. Tubes were labeled as tube-1 and tube-2. 2. The beads were washed 6×, 1 ml each, with double distilled water (DDW). […] At this stage beads were ready for incubation with protein source. […]
In general terms: A western blot detects proteins with antibodies after separation by electrophoresis.

With `O=C1c2c(cc(O)c([C@@H]3O[C@H](CO)[C@@H](O)[C@H](O)[C@H]3O)c2O)O[C@@H](c2ccc(O)c(O)c2)[C@@H]1O` [ULMA, (2S,3S)-(+)-3′,4′,5,7-tetrahydroxydihydroflavonol-6-C-β-D-glucopyranoside], in the assay with Human SVF, the PGC-1α protein level entry is listed as “elevated” and the UCPs protein level result is recorded as “elevated”. The “AdipoR1 detection on ULMA beads vs control beads” value on AdipoR1 is listed as “detected on ULMA beads”.

These data come from patent US20160193240A1, “Ulmoside-A: Useful For Prevention Or Cure Of Metabolic Diseases” (COUNCIL OF SCIENTIFIC & INDUSTRIAL RESEARCH, priority 2013, published 2016).
